# Laboratory results as given in paper PMC3169616, “Unique Residues Involved in Activation of the Multitasking Protease/Chaperone HtrA from Chlamydia trachomatis” (PLoS ONE, 2011).
# Tested on: CtHtrA R373A/R299W
# Assay: Oligomerisation assay, mutated protein
# Format: biochemical, Chlamydia trachomatis
# Conditions: R373A/R299W mutant, 10 mins incubation
# Excerpt: This activation was very similar to that observed for CtHtrA, and was the only condition during which any of the mutated proteins oligomerised in a similar profile to CtHtrA.
# The oligomerisation of HtrA into 12- and 24-mer complexes has been independently detected for E. coli HtrA (DegP). The oligomerisation of HtrA (DegP) was triggered by peptides from digested ß-casein [18]. Assays to detect whether CtHtrA and site directed mutant protein oligomerisation was triggered by substrates were conducted essentially as previously described (Merdanovic et al., 2010). Briefly, 2 mg/ml protein solutions in 100 mM sodium phosphate buffer pH 7.0 were pre-incubated to the required temperature. The ligands (activator peptide, or insulin) were added and at 10 min, and the proteins were fixed using 0.5% glutaraldehyde. Samples were fixed at room temperature for 2 min prior to addition of 1 M Tris pH 7.5 to remove any excess glutaraldehyde. Samples were incubated for another 10 min at room temperature prior to addition of SDS PAGE reducing loading buffer. The protein samples were examined on 3–8% TrisAcetate gradient polyacrylamide gels (Novex, Invitrogen) by silver staining. The proteins used in this study were not initially denatured by treatment with urea as, the refolding, formation of oligomers, and protease activity was never successfully detected with denatured CtHtrA. […]
substance,measurement,value
H-VLGPVRGPFPIIV-OH [Act1],oligomer formation induced by activator,induced R373A/R299W 24-mer formation
